From patent EP1247803A2, “Indolinone compounds suitable for modulation of protein kinases” (Sugen, Inc., priority 1996, dated 1998) come the findings set out here.

The target in test [1] is PDGF-R (Homo sapiens, UniProt P09619). Nature of the test: PDGF-R ELISA. It counts as cell-based. The text has this: A PDGF-R ELISA is described in International Patent Publication No. WO 96/40116, published December 19, 1996 by Tang et al.
In test [2] the target is T1, FLK-1 receptor (Mus musculus, UniProt P35918).
T1 construct: expressed in transfected cells; host or cells: NIH3T3 C7#3
T1 sequence (P35918 20-1345): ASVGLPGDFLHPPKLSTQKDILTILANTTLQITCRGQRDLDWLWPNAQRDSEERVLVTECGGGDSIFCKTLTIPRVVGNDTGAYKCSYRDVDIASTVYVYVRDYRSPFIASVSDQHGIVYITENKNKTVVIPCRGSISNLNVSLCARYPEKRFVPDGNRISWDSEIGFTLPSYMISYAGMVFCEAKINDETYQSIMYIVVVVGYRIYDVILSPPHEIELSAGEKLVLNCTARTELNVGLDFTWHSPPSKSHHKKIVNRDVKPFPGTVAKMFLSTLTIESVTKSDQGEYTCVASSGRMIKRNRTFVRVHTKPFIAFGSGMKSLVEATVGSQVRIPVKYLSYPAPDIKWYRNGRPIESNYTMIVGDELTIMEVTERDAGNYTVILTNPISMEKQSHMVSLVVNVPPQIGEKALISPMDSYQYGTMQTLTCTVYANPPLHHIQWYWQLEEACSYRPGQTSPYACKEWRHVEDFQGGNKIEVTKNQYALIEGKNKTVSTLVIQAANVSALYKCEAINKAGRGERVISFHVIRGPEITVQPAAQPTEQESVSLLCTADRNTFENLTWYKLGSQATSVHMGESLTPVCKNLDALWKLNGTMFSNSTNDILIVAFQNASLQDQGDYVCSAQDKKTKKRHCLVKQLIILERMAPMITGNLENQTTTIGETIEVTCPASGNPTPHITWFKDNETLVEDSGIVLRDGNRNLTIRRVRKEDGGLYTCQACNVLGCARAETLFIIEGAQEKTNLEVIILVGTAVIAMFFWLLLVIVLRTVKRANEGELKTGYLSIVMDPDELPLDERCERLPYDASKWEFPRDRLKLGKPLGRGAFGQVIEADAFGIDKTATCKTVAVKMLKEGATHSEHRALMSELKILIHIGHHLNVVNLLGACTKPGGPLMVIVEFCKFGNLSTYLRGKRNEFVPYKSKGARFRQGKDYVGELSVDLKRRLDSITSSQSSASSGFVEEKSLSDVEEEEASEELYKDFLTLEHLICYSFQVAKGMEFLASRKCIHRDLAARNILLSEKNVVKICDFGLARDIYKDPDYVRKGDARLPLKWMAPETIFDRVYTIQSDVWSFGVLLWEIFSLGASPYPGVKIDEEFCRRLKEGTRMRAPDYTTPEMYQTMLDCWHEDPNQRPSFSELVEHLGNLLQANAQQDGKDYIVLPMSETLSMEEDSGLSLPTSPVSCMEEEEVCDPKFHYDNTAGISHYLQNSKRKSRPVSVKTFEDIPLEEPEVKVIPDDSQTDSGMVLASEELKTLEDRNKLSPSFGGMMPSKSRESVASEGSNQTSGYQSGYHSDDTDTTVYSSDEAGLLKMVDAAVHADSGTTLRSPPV
The test can be described thus: FLK-1 ELISA (kinase activity of the FLK-1 receptor in FLK-1/NIH3T3 cells, VEGF stimulated). It counts as cell-based. In outline: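 NIH3T3 C7#3 cells expressing FLK-1 were seeded at 25.000 cells/well, serum-starved overnight in 0.1% FBS, then treated with compound for two hours at 37°C (final DMSO 0.5%) before VEGF stimulation. Receptor was captured on anti-rabbit IgG-coated ELISA plates bearing affinity-purified anti-FLK-1 antiserum.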
For orientation: An ELISA detects its analyte on a solid surface through an enzyme-linked reagent.

The subject of test [3] is MET. The test can be described thus: MET biochemical kinase assay. Further details: species or system human; concentration or dose not given beside the values. The gist of the method:
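Lysate-derived MET, or chimeric receptors, is immobilised on plates through an antibody to the human MET cytoplasmic region. Compounds are added along with kinase buffer supplying ATP and divalent metal ions, and receptor autophosphorylation is quantified by anti-phosphotyrosine ELISA.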

PDGF-R, sequence (P09619 33-1106, species assumed): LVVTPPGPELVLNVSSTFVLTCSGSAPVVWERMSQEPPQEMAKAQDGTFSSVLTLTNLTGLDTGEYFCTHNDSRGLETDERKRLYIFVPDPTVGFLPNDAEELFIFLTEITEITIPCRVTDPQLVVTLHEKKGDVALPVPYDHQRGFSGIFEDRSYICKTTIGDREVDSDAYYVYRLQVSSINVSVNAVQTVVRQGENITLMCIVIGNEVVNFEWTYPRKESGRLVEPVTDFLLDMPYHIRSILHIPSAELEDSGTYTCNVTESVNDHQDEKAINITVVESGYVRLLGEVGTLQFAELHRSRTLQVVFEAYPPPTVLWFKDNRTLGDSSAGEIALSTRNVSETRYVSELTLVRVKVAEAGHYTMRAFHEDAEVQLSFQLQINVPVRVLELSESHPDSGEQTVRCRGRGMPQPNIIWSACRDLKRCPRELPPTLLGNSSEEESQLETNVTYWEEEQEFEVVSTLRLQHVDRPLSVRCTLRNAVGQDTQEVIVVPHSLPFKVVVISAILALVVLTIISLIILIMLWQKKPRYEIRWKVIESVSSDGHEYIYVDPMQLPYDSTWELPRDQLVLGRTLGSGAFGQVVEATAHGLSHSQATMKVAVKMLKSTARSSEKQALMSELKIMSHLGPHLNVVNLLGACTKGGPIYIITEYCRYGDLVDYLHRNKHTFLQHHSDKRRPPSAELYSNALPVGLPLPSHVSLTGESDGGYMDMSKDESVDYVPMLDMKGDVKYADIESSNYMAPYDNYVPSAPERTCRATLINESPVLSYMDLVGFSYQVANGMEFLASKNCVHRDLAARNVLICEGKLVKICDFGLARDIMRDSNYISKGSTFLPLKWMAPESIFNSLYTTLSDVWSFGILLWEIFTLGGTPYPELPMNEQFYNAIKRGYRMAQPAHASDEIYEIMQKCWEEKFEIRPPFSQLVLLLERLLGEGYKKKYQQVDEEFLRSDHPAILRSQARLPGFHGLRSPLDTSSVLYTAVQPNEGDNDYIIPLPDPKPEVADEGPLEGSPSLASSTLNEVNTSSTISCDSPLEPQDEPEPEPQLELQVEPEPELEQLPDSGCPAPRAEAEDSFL

Regarding `COc1c(I)cc(C=C2C(=O)Nc3ccc(CCCl)cc32)cc1C(C)(C)C` [10732/G11], the “PDGF Kinase %Inhibition” value in test [1] came out at 38.6%. The “Fik Kinase %Inhibition” value in test [2] is 10.9%. The “Met Kinase % Inhibition” value in test [3] stood at 63.0%.
In the same order, the values of `CC(C)(C)c1cc(C=C2C(=O)Nc3c(Br)cc(Br)cc32)cc(I)c1OCc1ccccc1` [10733/A02] are 11.5%, -5.2% and 74.6%.
In the same order, the values of `COc1c([N+](=O)[O-])cc(C=C2C(=O)Nc3c(Br)cc(Br)cc32)cc1C(C)(C)C` [10733/A03] are 23.2%, 45.0% and 24.9%.
In the same order, the values of `COc1c(C(C)(C)C)cc(C=C2C(=O)Nc3c(Br)cc(Br)cc32)cc1C(C)(C)C` [10733/A04] are -14.1%, -11.2% and 24.0%.
Consider `CC(C)(C)c1cc(C=C2C(=O)Nc3c(Br)cc(Br)cc32)cc(C(C)(C)C)c1OCc1ccccc1` [10733/A05], for which the “PDGF Kinase %Inhibition” value in test [1] is reported as -4.0%. Moreover, the “Fik Kinase %Inhibition” value in test [2] is -23.3%. For the same compound, the “Met Kinase % Inhibition” value in test [3] turned out to be 18.2%.
In the same order, the values of `COc1c(C)cc(C=C2C(=O)Nc3c(Br)cc(Br)cc32)cc1C` [10733/A06] are -24.3%, -16.6% and 33.7%.
In the same order, the values of `Cc1cc(C=C2C(=O)Nc3c(Br)cc(Br)cc32)cc(C)c1OCc1ccccc1` [10733/A07] are -12.9%, -27.4% and 27.2%.
In the same order, the values of `COc1cc(Br)cc(C=C2C(=O)Nc3c(Br)cc(Br)cc32)c1O` [10733/A08] are -10.1%, -17.1% and 27.2%.
`O=C1Nc2c(Br)cc(Br)cc2C1=Cc1cc(Br)ccc1O` [10733/A09]: the “PDGF Kinase %Inhibition” value in test [1] is given as -7.6%. Also, in test [2], the “Fik Kinase %Inhibition” value was -11.9%. The “Met Kinase % Inhibition” value in test [3] is recorded as 22.1%.
`O=C1Nc2c(Br)cc(Br)cc2C1=Cc1cc([N+](=O)[O-])ccc1O` [10733/A10]: the “PDGF Kinase %Inhibition” value in test [1] is on record as -13.3%. In test [2], the “Fik Kinase %Inhibition” value is -9.3%. Further, the “Met Kinase % Inhibition” value in test [3] was 21.1%.
In the same order, the values of `COc1c(O)ccc(C=C2C(=O)Nc3c(Br)cc(Br)cc32)c1[N+](=O)[O-]` [10733/A11] are 4.2%, 15.0% and 43.5%.
In the same order, the values of `CC(C)(C)c1cc(C=C2C(=O)Nc3ccc(I)cc32)cc(I)c1OCc1ccccc1` [10733/B02] are 14.7%, -7.4% and 74.6%.
In the same order, the values of `COc1c([N+](=O)[O-])cc(C=C2C(=O)Nc3ccc(I)cc32)cc1C(C)(C)C` [10733/B03] are 35.8%, 3.1% and 62.2%.
As to `COc1c(C(C)(C)C)cc(C=C2C(=O)Nc3ccc(I)cc32)cc1C(C)(C)C` [10733/B04], the “PDGF Kinase %Inhibition” value in test [1] is on record as 24.9%. In addition, in test [2], the “Fik Kinase %Inhibition” value is -3.3%. For the same compound, the “Met Kinase % Inhibition” value in test [3] is recorded as 56.3%.
In the same order, the values of `CC(C)(C)c1cc(C=C2C(=O)Nc3ccc(I)cc32)cc(C(C)(C)C)c1OCc1ccccc1` [10733/B05] are 27.3%, -1.1% and 61.3%.
In the same order, the values of `COc1c(C)cc(C=C2C(=O)Nc3ccc(I)cc32)cc1C` [10733/B06] are -9.2%, 4.6% and 71.4%.
In the same order, the values of `Cc1cc(C=C2C(=O)Nc3ccc(I)cc32)cc(C)c1OCc1ccccc1` [10733/B07] are 4.2%, 1.2% and 73.5%.
For the compound `COc1cc(Br)cc(C=C2C(=O)Nc3ccc(I)cc32)c1O` [10733/B08], the “PDGF Kinase %Inhibition” value in test [1] is recorded as -15.7%. For the same compound, the “Fik Kinase %Inhibition” value in test [2] is -16.0%. In addition, in test [3], the “Met Kinase % Inhibition” value stood at 65.5%.
In the same order, the values of `O=C1Nc2ccc(I)cc2C1=Cc1cc(Br)ccc1O` [10733/B09] are 7.0%, -2.6% and 64.5%.
In the same order, the values of `O=C1Nc2ccc(I)cc2C1=Cc1cc([N+](=O)[O-])ccc1O` [10733/B10] are -59.6%, 5.7% and 65.1%.
In the same order, the values of `COc1c(O)ccc(C=C2C(=O)Nc3ccc(I)cc32)c1[N+](=O)[O-]` [10733/B11] are 23.7%, 22.5% and 36.6%.
On to `Cc1c(Br)ccc2c1C(=Cc1cc(I)c(OCc3ccccc3)c(C(C)(C)C)c1)C(=O)N2` [10733/C02], for which the “PDGF Kinase %Inhibition” value in test [1] is on record as 15.1%. Besides, in test [2], the “Fik Kinase %Inhibition” value stood at 5.8%. In addition, the “Met Kinase % Inhibition” value in test [3] turned out to be 71.8%.
In the same order, the values of `COc1c([N+](=O)[O-])cc(C=C2C(=O)Nc3ccc(Br)c(C)c32)cc1C(C)(C)C` [10733/C03] are 28.1%, 17.0% and 29.3%.
As for `COc1c(C(C)(C)C)cc(C=C2C(=O)Nc3ccc(Br)c(C)c32)cc1C(C)(C)C` [10733/C04], in test [1], the “PDGF Kinase %Inhibition” value is recorded as 19.2%. In test [2], the “Fik Kinase %Inhibition” value amounted to 8.4%. In addition, the “Met Kinase % Inhibition” value in test [3] was 18.4%.
Regarding `Cc1c(Br)ccc2c1C(=Cc1cc(C(C)(C)C)c(OCc3ccccc3)c(C(C)(C)C)c1)C(=O)N2` [10733/C05], in test [1], the “PDGF Kinase %Inhibition” value stood at 11.1%. Moreover, in test [2], the “Fik Kinase %Inhibition” value is 11.5%. In addition, the “Met Kinase % Inhibition” value in test [3] was 23.2%.
In the same order, the values of `COc1c(C)cc(C=C2C(=O)Nc3ccc(Br)c(C)c32)cc1C` [10733/C06] are 20.0%, 4.7% and 4.1%.
In the same order, the values of `Cc1cc(C=C2C(=O)Nc3ccc(Br)c(C)c32)cc(C)c1OCc1ccccc1` [10733/C07] are 4.6%, 1.2% and 10.2%.
As for `COc1cc(Br)cc(C=C2C(=O)Nc3ccc(Br)c(C)c32)c1O` [10733/C08], the “PDGF Kinase %Inhibition” value in test [1] was -3.6%. Besides, the “Fik Kinase %Inhibition” value in test [2] is given as -28.5%. Further, the “Met Kinase % Inhibition” value in test [3] turned out to be 85.7%.
In the same order, the values of `Cc1c(Br)ccc2c1C(=Cc1cc(Br)ccc1O)C(=O)N2` [10733/C09] are 91.9%, -18.0% and 16.3%.
In the same order, the values of `Cc1c(Br)ccc2c1C(=Cc1cc([N+](=O)[O-])ccc1O)C(=O)N2` [10733/C10] are -6.4%, -7.6% and 20.5%.
